Laboratory results as given in paper PMC6271731, “Multitarget Molecular Hybrids of Cinnamic Acids” (Molecules, 2014).
Several values for one entry are separate records, joined by “and”; a condition that tells them apart may be missing. Identical values can stand only once.

How the values were obtained:
[1] = Lipophilicity as RM values by RP-TLC; format: physicochemical; details: methanol/water 70/30, 24 °C, average of at least five measurements
Text: Since lipophilicity is a significant physicochemical property determining distribution, bioavailability, metabolic activity and elimination, we tried to determine experimentally the lipophilicity of the new substances by a RPTLC method as RM values (Table 1) and to compare them with the corresponding theoretically calculated clog p values in n-octanol-buffer. This is considered to be a reliable, fast and convenient method for expressing lipophilicity. Lipophilicity (Table 2), was theoretically calculated as Clog p values in n-octanol-buffer by the CLOGP Programme of Biobyte Corp..
Reversed phase TLC (RP-TLC) was performed on silica gel plates impregnated with 5% (v/v) liquid paraffin in light petroleum ether. The mobile phase was a methanol/water mixture (70/30, v/v). The plates were developed in closed chromatography tanks saturated with the mobile phase at 24 °C. Spots were detected under UV light. RM values were determined from the corresponding Rf values (from five individual measurements) using the equation RM = log [(1/Rf) − 1] (Table 1).

soybean lipoxygenase = target: T1, soybean lipoxygenase (Glycine max, UniProt P08170); assay: Soybean lipoxygenase inhibition in vitro; format: biochemical
T1 construct: purchased Sigma Chemical, Co. (St. Louis, MO, USA)
T1 sequence (P08170 1-839): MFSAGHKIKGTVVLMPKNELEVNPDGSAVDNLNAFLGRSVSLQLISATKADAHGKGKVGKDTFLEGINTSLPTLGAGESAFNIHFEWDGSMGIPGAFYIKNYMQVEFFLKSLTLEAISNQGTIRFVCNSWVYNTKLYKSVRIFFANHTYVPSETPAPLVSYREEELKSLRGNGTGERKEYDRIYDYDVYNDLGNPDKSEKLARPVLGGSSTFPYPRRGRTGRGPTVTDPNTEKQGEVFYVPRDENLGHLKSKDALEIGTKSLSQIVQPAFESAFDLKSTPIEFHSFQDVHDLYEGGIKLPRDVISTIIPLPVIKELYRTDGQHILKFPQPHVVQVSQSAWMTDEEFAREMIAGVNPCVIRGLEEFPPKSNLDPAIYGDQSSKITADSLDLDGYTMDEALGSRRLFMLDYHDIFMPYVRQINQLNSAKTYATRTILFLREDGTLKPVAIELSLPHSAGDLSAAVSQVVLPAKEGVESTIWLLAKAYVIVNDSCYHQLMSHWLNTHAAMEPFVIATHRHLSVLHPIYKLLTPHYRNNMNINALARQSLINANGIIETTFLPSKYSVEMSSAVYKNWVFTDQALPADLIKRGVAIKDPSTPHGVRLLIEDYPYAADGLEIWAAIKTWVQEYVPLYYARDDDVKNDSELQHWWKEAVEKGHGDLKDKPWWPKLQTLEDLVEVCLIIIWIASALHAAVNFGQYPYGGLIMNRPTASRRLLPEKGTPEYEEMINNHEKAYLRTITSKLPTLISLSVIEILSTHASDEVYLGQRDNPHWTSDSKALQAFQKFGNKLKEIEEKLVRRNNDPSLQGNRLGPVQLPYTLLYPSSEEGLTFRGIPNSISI
Procedure: DMSO solution of the tested compound was incubated with sodium linoleate (0.1 mM) and 0.2 mL of soybean lipoxygenase solution (1/9 × 10^−4 w/v in saline) in buffer pH 9 (tris) and at room temperature. […] The results are given in Table 1 expressed as IC50 values or % inhibition at 100 μM.

[2] = target: T2, pancreatic bovine trypsin (Bos taurus, UniProt P00760); assay: Inhibition of trypsin induced proteolysis in vitro; format: biochemical; details: bovine albumin substrate, pH 7.6, 37 °C; read-out: IC50 μM Trypsin Inh.
T2 construct: purchased Sigma Chemical, Co. (St. Louis, MO, USA)
T2 sequence (P00760 24-246): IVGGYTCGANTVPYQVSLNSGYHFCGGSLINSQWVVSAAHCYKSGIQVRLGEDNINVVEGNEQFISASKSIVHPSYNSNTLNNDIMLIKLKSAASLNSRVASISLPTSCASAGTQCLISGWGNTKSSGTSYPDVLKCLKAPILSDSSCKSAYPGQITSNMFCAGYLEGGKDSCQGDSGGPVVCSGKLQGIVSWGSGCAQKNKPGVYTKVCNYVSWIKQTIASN
Text: All chemicals, solvents, chemical and biochemical reagents were of analytical grade and purchased from commercial sources (Merck, Merck KGaA, Darmstadt, Germany, Fluka Sigma-Aldrich Laborchemikalien GmbH, Hannover, Germany, Alfa Aesar, Karlsruhe, Germany and Sigma, St. Louis, MO, USA). Soybean lipoxygenase, pancreatic bovine trypsin, sodium linoleate, free radical DPPH and 2,2-azinobis-2-methyl-propanimidamine HCl (AAPH) were obtained from Sigma Chemical, Co. (St. Louis, MO, USA), carrageenin, type K, was commercially available. All starting materials were obtained from commercial sources and used without further purification.
The test was carried out according to a modified Kunitz method. Bovine albumin was used as substrate for trypsin. The reaction mixture consisted of 0.075 mg/mL trypsin (200 μL) and 780 μL of phosphate buffer pH 7.6 (including the tested compounds (20 μL in DMSO, final concentration 100 μM) preincubated at 37 °C for 20 min and then 1 mL of albumin (stock solution 6 g/100 mL in phosphate buffer 0.1 M, pH 7.6) was added and incubated at 37 °C for 30 min. After the incubation 1 mL of 5% trichloroacetic acid was added to the incubated solution to stop the enzyme’s reaction and allowed to set at room temperature for 1 h. Then the solution was filtered by filter paper and the absorption of the filtered solution was measured at 280 nm. Salicylic acid was used as a reference compound (Table 1).

[3] = system: carrageenin-induced rat paw oedema; assay: Inhibition of the carrageenin-induced rat paw oedema; format: in vivo, Fisher-344 rats; details: 0.01 mmol/1 kg, i.p., 3.5 h after carrageenin
Procedure: Anti-inflammatory tests were conducted on Fisher-344 inbred rats of ca. 200 g body weight whereas antinociception and motor and sensory functions after sciatic nerve crash were performed on Wistar rats. Both sexes were used. Females pregnant were excluded. Each group was composed of 6 animals. The animals, which have been bred in our laboratory, were housed under standard conditions and received a diet of commercial food pellets and water ad libitum during the maintenance. Our studies were carried out in accordance with recognised guidelines on animal experimentation.
The tested compounds 0.01 mmol/kg body weight were suspended in water with few drops of Tween 80 and ground in a mortar before use. Controls received the liquid vehicle only. All the in vivo experiments were repeated at least in triplicate and were subjected to statistic analysis using the student’s t-test.
Oedema was induced in the right hind paw of Fisher 344 rats by the intradermal injection of 0.1 mL 2% carrageenin in water. Each group was composed of 6 animals which they were entirely fasted during the experiment period. The tested compounds 0.01 mmol/kg body weight, were given intraperitoneally simultaneously with the carrageenin injection. The rats were euthanized 3.5 h after carrageenin injection. The difference between the weight of the injected and not-injected paws was calculated for each animal. The change in paw weight was compared with that in control animals (treated with water) and expressed as a percent inhibition of the oedema (ICPE % values in Table 1). Indomethacin 0.01 mmol/kg was used as reference compound. ICPE % are the mean values from two different experiments with a standard error of the mean less than 10%.

CC(=O)Nc1ccc(OC(=O)/C=C/c2cccc(Oc3ccccc3)c2)cc1 [Compound 2a, (E)-4-Acetamidophenyl 3-(3-phenoxyphenyl)acrylate]
RM (±S.D.) [1]: 0.276 ± 0.006 | IC50 (soybean lipoxygenase): 100 µM | IC50 [2]: 10 µM | % ICPE (carrageenin-induced rat paw oedema inhibition) [3]: 36.5% and 36.5 ** %
